Test results published in patent US9718770B2, “Substituted thioureas as heat shock protein 70 inhibitors” (Institute of Pharmacology and Toxicology Academy of …, priority 2013, dated 2017).

Assays:
[1] = biological target: T1, Hsp70 ATPase (Homo sapiens, UniProt P0DMV8); assay: Inhibition of Hsp70 ATPase activity (malachite green); format: biochemical; settings: for Inhibitory rate (%) on activity of Hsp70 ATPase / inhibitory rate of Hsp70 ATPase activity / inhibition at 200 µM: 200 μM; for Inhibitory rate (%) on activity of Hsp70 ATPase / inhibition at 200 µM: repeated screening carried out twice, Hsp70/Hsp40, 1 mM ATP; for dose-response relationship with respect to inhibition of Hsp70 ATPase activity: first preliminary screening, 200, 100, 50, 25 and 12.5 μM with Hsp70/Hsp40, FIGS. 1, 2; for inhibitory rate of Hsp70 ATPase activity: preliminary screening, after incubation for 30 min; for inhibition at 200 µM: read-out: Inhibitory rate (%) on activity of Hsp70 ATPase
T1 construct: made in house; host or cells: E. coli
T1 sequence (P0DMV8 2-641 limits assumed): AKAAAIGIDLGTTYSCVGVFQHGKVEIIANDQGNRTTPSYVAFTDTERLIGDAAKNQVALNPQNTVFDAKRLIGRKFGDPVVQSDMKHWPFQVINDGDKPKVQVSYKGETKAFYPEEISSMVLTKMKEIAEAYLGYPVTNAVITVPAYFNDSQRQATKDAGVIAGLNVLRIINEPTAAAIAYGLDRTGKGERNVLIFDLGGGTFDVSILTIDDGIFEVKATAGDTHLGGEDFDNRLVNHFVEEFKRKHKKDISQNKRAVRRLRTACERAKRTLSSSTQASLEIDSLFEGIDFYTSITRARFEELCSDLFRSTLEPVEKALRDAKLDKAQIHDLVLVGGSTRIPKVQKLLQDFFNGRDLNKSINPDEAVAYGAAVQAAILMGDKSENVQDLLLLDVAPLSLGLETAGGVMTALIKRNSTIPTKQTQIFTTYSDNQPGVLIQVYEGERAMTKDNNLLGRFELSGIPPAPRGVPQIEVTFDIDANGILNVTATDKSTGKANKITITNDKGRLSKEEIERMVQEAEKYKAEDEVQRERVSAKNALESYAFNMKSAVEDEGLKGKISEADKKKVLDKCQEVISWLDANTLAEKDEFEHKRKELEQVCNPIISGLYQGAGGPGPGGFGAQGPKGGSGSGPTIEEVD
Method: (1) Protein: Humanized Hsp70, Hsp40, expressed by E. coli.
(2) Sample to be tested: 26 compound solids with different colors and states. Positive drugs AZ (CAS:1054543-47-3) and VER 155008 (CAS: 1134156-31-2) were synthesized in the laboratory.
(4) ATPase Assay buffer: • 0.017% Triton X-100; • 100 mM Tris-HCl; • 20 mM KCl; • 6 mM MgCl2, pH 7.4.
1) 13.08 μl DnaK (0.15 mg/mL, 2.14 μM), 1.96 μl DnaJ (1 mg/mL, 25 μM) were dissolved in 7.96 μl Assay Buffer (0.017% Triton X-100, 100 mM Tris-HCl, 20 mM KCl, and 6 mM MgCl2, pH 7.4), and the resultant solution was added to each well of the 96 well plate;
2) to each well of the 96 well plate, 1 μL sample to be tested (5 mM) or DMSO (solvent) was added, and vortexed with a Vortex agitator for 10 min; and then standing at 37° C. for 30 min;
3) to each well, 1 μL 25 mM ATP was added, to trigger the enzymatic reaction; (in each well, the final reaction volume was 25 μL, the final concentration of DnaK was 1.12 μM, the final concentration of DnaJ was 1.96 μM, the final concentration of DMSO was 4%, the final concentration of Triton X-100 was 0.01%, the final concentration of ATP was 1 mM, and the final concentration of sample to be tested was 200 μM), the enzymatic reaction was carried out at 37° C. for 3 h;
4) 80 μL Malachite green staining solution was then added to each well, and was vortexed gently;
5) 10 μL of 34% citrate sodium was then added immediately, and vortexed gently, to stop the ATP hydrolysis not caused by ATPase;
6) the resultant mixture was mixed thoroughly at 37° C. for 15 min, and OD620 was measured.
The inhibitory rate of Hsp70 ATPase activity is calculated in accordance with the following formula: Inhibitory rate (%)=(DMSO well OD−Experimental well OD)/(DMSO well OD−Blank well OD)×100
Criteria for preliminary screening: during preliminary screening, an example compound is regarded as effective in inhibition as long as its inhibitory rate is above 20% for Hsp70 ATPase at 200 μM.

[2] = system: SK/Lap^R1.0; assay: CDI of example compounds and Lapatinib (ATPlite cell survival); format: cell-based; settings: compound 5 μM + Lapatinib 1 μM, 72 h; secondary Lapatinib-resistant human breast cancer cells; CDI<1 synergistic
Method: (§1) Cells: (BT474 and SK-BR3 are Lapatinib-sensitive human breast cancer cell strains; BT/LapR and SK/LapR are secondary Lapatinib-resistant human breast cancer cell strains upon Lapatinib stimulation; MDA-MB-361 and MDA-MB-453 are natural Lapatinib-resistant human breast cancer cell strains. BT474, MDA-MB-361, SK-BR3 and MDA-MB-453 are from American Type Culture Collection (ATCC))
(§2) In a 100 mm culture dish full of adherent cells, digestion with 1 ml 0.25% pancreatin (GIBCO) was carried out at 37° C. for 5 min, and the reaction was stopped with 2 ml medium (containing 10% FBS, GIBCO). The cells were dispersed and collected. After cell count, the cells were diluted to a concentration of 1×10^5 cells/ml, and were seeded to a 96-well plate at 50 μl/well, 5000 cell/well, 60 wells in total, PBS instead of cells was added to the wells of the outmost circle, and the incubation was carried out at 37° C. for 24 h for adherence.
(§3) For the sample group, samples to be tested were diluted with DMSO to a final concentration of 5 μM; to control wells, the medium containing the same concentration of solvent corresponding to the compound was added, the concentrations of the compounds were identical in each well, 5 wells in parallel were set for each concentration, 25 μL/well, and 25 μL medium was added to each well (for the combination group, 25 μL Lapatinib was added to reach a final concentration of 1 μM). The incubation was carried out at 37° C. for 72 h.
(§4) To each well, 50 μL ATPlite kit substrate solution was added. The plate was under shaking for 3 min, and was then placed in dark for 10 min. The lysis supernatant was drawn at 100 μL/well, and placed in a luminescent plate. The incubated luminescent plate was placed in an iluminescence apparatus, and the iluminescent value was read.
(§5) Data Processing Cell survival rate (%)=Experimental group RLU/control group RLU×100%
(§6) Coefficient of drug interaction (CDI) is used to evaluate the interaction of two drugs, CDI is calculated in accordance with the following formula: CDI=AB/(A×B)×100%. The calculation is performed according to the number of live cells (luminescent value), if CDI<1, the two drugs have a synergistic effect; if CDI<0.7, the synergistic effect is very significant; if CDI=1, the effect of the two drugs in combination is the sum of the effects of the two drugs; if CDI>1, the two drugs have an antagonistic effect.

[3] = system: BT/Lap^R1.0; assay: as above; format: cell-based; settings: compound 5 μM + Lapatinib 1 μM, 72 h; secondary Lapatinib-resistant human breast cancer cells; CDI<1 synergistic
Method: as §1, §2, §3, §4, §5, §6

[4] = system: MDA-MB-453; assay: as above; format: cell-based; design: key: CDI = AB/(A×B); <1 synergistic; settings: compound 5 μM + Lapatinib 1 μM, 72 h; natural Lapatinib-resistant human breast cancer cells; CDI<1 synergistic
Method: as §1, §2, §3, §4, §5, §6

[5] = system: MDA-MB-361; assay: as above; format: cell-based; design: key: CDI = AB/(A×B); <1 synergistic; settings: compound 5 μM + Lapatinib 1 μM, 72 h; natural Lapatinib-resistant human breast cancer cells; CDI<1 synergistic
Method: as §1, §2, §3, §4, §5, §6

[6] = system: SK-BR3; assay: as above; format: cell-based; design: key: CDI = AB/(A×B); <1 synergistic; settings: compound 5 μM + Lapatinib 1 μM, 72 h; Lapatinib-sensitive human breast cancer cells; CDI<1 synergistic
Method: as §1, §2, §3, §4, §5, §6

[7] = system: BT474; assay: as above; format: cell-based; design: key: CDI = AB/(A×B); <1 synergistic; settings: compound 5 μM + Lapatinib 1 μM, 72 h; Lapatinib-sensitive human breast cancer cells; CDI<1 synergistic, <0.7 very significant, >1 antagonistic
Method: as §1, §2, §3, §4, §5, §6

Row | Compound | Inhibitory rate (%) on activity of Hsp70 ATPase [1] [%] | dose-response relationship with respect to inhibition of Hsp70 ATPase activity [1] | inhibitory rate of Hsp70 ATPase activity [1] [%] | CDI of example compounds and Lapatinib, SK/Lap^R1.0 [2] | CDI of example compounds and Lapatinib, BT/Lap^R1.0 [3] | inhibition at 200 µM [1] [%] | CDI of example compounds and Lapatinib, MDA-MB-453 [4] | CDI of example compounds and Lapatinib, MDA-MB-361 [5] | CDI of example compounds and Lapatinib, SK-BR3 [6] | CDI of example compounds and Lapatinib, BT474 [7]
1 | COc1ccc(-c2nc(-c3cc(C(F)(F)F)cc(C(F)(F)F)c3)n(Cc3ccc(C(N)=O)cc3)c2-c2ccc(OC)cc2)cc1 [AZ, reference compound] | 53.04 | dose-response relationship | 53.13 |  |  |  |  |  |  | 
2 | COc1cc(/C=C/C(=O)NC(CC(C)C)NC(=S)Nc2ccccc2)cc(OC)c1OC (stereo not drawn) [Example 24, (2E)-N-[3-methyl-1-(3-phenylthioureido)butyl]-3-(3,4,5-trimethoxyphenyl) acrylamide] |  |  |  | 1 | 0.98 | 50.4 | 1.12 | 0.92 | 1.04 | 1.03
3 | COc1cc(/C=C/C(=O)NC(CC(C)C)NC(=S)Nc2cccnc2)cc(OC)c1OC (stereo not drawn) [Example 25, (2E)-N-[3-methyl-1-(3-pyridin-3-ylthioureido)butyl]-3-(3,4,5-trimethoxyphenyl) acrylamide] |  |  |  | 0.93 | 0.97 | 38.5 | 1.2 | 0.93 | 1.04 | 0.94
4 | COc1cc(/C=C/C(=O)NC(NC(=S)Nc2ccccc2)C(C)(C)C)cc(OC)c1OC (stereo not drawn) [Example 26] |  |  |  | 1.02 | 0.96 | 4.55 | 0.89 | 0.99 | 1.03 | 1.02
5 | COc1cc(/C=C/C(=O)NC(NC(=S)Nc2cccnc2)C(C)(C)C)cc(OC)c1OC (stereo not drawn) [Example 27, (2E)-N-[2,2-dimethyl-1-(3-pyridin-3-ylthioureido)propyl]-3-(3,4,5-trimethoxyphenyl) acrylamide] |  |  |  | 0.97 | 1.01 | 2.17 | 1.32 | 0.96 | 1 | 0.98
6 | COc1cc(/C=C/C(=O)NC(NC(=S)Nc2ccccc2)C2CC2)cc(OC)c1OC (stereo not drawn) [Example 28, (2E)-N-[cyclopropyl-(3-phenylthioureido)-methyl]-3-(3,4,5-trimethoxyphenyl) acrylamide] |  |  |  | 0.95 | 0.99 | 50.5 | 1.21 | 0.93 | 1.06 | 1.07
7 | COc1cc(/C=C/C(=O)NC(NC(=S)Nc2cccnc2)C2CC2)cc(OC)c1OC (stereo not drawn) [Example 29, (2E)-N-[cyclopropyl-(3-pyridin-3-ylthioureido)-methyl]-3-(3,4,5-trimethoxyphenyl) acrylamide] |  |  |  | 1.26 | 0.99 | 2.55 | 1.05 | 1 | 0.98 | 1.05
8 | COc1cc(/C=C/C(=O)NC(NC(=S)Nc2ccccn2)C2CC2)cc(OC)c1OC (stereo not drawn) [Example 30, (2E)-N-[cyclopropyl-(3-pyridin-2-ylthioureido)-methyl]-3-(3,4,5-trimethoxyphenyl) acrylamide] |  |  |  | 0.82 | 0.93 | -5.66 | 1.28 | 0.85 | 0.94 | 0.94
9 | COc1cc(/C=C/C(=O)NC(CC(C)C)NC(=S)Nc2ccccn2)cc(OC)c1OC (stereo not drawn) [Example 31, (2E)-N-[3-methyl-1-(3-pyridin-2-ylthioureido)butyl]-3-(3,4,5-trimethoxyphenyl) acrylamide] |  |  |  | 0.95 | 1.2 | 10.5 | 1.38 | 0.85 | 1 | 1.01
10 | COc1cc(/C=C/C(=O)NC(CC(C)(C)C)NC(=S)Nc2ccccc2)cc(OC)c1OC (stereo not drawn) [Example 32, (2E)-N-[3,3-dimethyl-1-(3-phenylthioureido)butyl]-3-(3,4,5-trimethoxyphenyl)acrylamide] |  |  |  | 0.89 | 1.25 | 44.1 | 1.42 | 0.91 | 1.13 | 0.65
11 | COc1cc(/C=C/C(=O)NC(NC(=S)Nc2ccccc2)C(C)C)cc(OC)c1OC (stereo not drawn) [Example 36, (2E)-N-[2-methyl-1-(3-phenylthioureido)propyl]-3-(3,4,5-trimethoxyphenyl) acrylamide] |  |  |  | 0.94 | 0.96 |  | 1.3 | 0.98 | 1.07 | 0.97
12 | N#Cc1ccc(COC[C@H]2O[C@@H](n3c(NCc4ccc(Cl)c(Cl)c4)nc4c(N)ncnc43)[C@H](O)[C@@H]2O)cc1 [VER155008, reference compound] | 43.03 | dose-response relationship | 38.18 |  |  |  |  |  |  | 
